# Assay results from patent publication US12145947B2, “Pyrimidine based modulators and uses thereof” (Quanta Therapeutics, Inc., priority 2022, dated 2024).
# Tests used:
# KRAS G12D/RAF1 = target: T1, KRAS G12D/RAF1 (Homo sapiens, UniProt P01116, G12D); experiment: Protein-protein interaction (PPI) HTRF assay KRAS G12D/RAF1; format: binding
# T1 construct: His6-MBP (N, cleaved yes); made in house; host or cells: E. coli
# In short: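 Biotinylated human KRAS (1-169; wt, G12D, G12V) or wt NRAS, GppNHp-loaded, pre-incubated 30 min RT with compound and streptavidin-d2, then His-RAF1 RBD (52-131) with anti-6His Tb cryptate added for 1 h RT. HTRF 665/615 ratio normalized to no compound (0%) and untagged RAF1 (100%); IC50.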
# [1] = test system: AGS cells (KRAS G12D), phospho-ERK; experiment: pERK In Cell Western (ICW) assay (Method B), AGS cells; format: cell-based; settings: Homo sapiens, Table 4, pERK, 3 hours, read-out: ICW-AGS
# Experimental: pERK ICW is a high throughput screening assay to evaluate the cellular potency of mutant KRAS small molecule inhibitors. KRAS mutant cell lines AGS and GP2D (KRAS^G12D) were purchased from ATCC and maintained respectively in RPMI and DMEM medium supplemented with 10% fetal bovine serum and Penicillin/Streptomycin.
# Cells grown in exponential phase were trypsinized, resuspended in fresh media, and viable cells were counted using a cell counter with Trypan Blue (BioRad TC20). Cells were seeded into 384-well plate (Greiner 781091) at density of 5,000 cells/well for AGS and 10,000 cells/well for GP2D and allowed to grow overnight in a 37° C. CO2 incubator. The next day, compounds were dispensed into wells with a ½ log, 10-point serial dilution and top concentration of […] using Tecan D300e dispenser and incubated for 3 hours in a 37° C. CO2 incubator. Cells were then fixed with paraformaldehyde (Electron Microscopy Sciences, 15710, 4% final concentration) for 30 min, permeabilized with wash buffer (1×PBS+0.1% Triton X-100) for 30 min and blocked with Odyssey blocking buffer (Li—COR 927-70001) for 1 hour, all at room temperature (RT). Phospho-ERK antibody (CST 4370L) was diluted 1:500 in Odyssey blocking+0.2% Tween 20 and incubated with cells overnight at 4° C. The next day, plates were washed 5× with wash buffer, incubated with IRDye 800 CW, Goat anti-Rabbit secondary antibody (Li—COR 926-32211, 1:500) and DRAQ5 (CST 4084L, 1:5,000) diluted in Odyssey blocking+0.2% Tween 20 for 1 hour, washed 5×, and imaged on an Odyssey CLx imaging system.
# For data analysis, signal intensities from 800 (phosphor-ERK) and 700 (DRAQ5) channels were extracted, and phospho-ERK signals were normalized to DRAQ5 signals for each well and percent of DMSO control values were computed. Data were then imported into Graphpad Prism to compute half-maximal inhibitory concentrations (IC50) using a 4-parameter variable slope model. Z-factor for each plate was computed from signals derived from wells treated with either DMSO or […] of Trametinib. AGS pERK ICW (Method B) IC50 (uM) values of selected compounds are depicted in Table 2 with compounds having a value 0.001 uM to 0.01 uM as ++++; >0.01 uM to 0.1 uM as +++; >0.1 uM to 1 uM as ++; 1 uM to 10 uM as + and >10 uM as NA.
# T1 sequence (P01116 with tags, fused parts or gaps isoform P01116-2 G12D): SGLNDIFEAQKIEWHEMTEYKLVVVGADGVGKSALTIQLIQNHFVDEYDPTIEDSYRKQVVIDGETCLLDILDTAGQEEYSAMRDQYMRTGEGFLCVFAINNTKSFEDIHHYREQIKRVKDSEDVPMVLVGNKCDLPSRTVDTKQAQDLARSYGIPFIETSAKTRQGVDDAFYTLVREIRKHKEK
SMILES,IC50 (KRAS G12D/RAF1; Table 4) [nM],IC50 [1] [nM],IC50 (KRAS G12D/RAF1; Table 2) [nM]
"Cc1noc(-c2cc3n(n2)CCCN(c2nc(OC[C@@]45CCCN4C[C@H](F)C5)nc(N4CC5(CCc6sc(N)c(C#N)c65)C4)c2C#N)C3)n1 [Compound 16, 2-amino-1′-[5-cyano-6-[2-(3-methyl-1,2,4-oxadiazol-5-yl)-4,6,7,8-tetrahydropyrazolo[1,5-a][1,4]diazepin-5-yl]-2-[[(2R,8S)-2-fluoro-1,2,3,5,6,7-hexahydropyrrolizin-8-yl]methoxy]pyrimidin-4-yl]spiro[5,6-dihydrocyclopenta[b]thiophene-4,3′-azetidine]-3-carbonitrile]",10000 to 100000,100 to 1000,–
"N#Cc1c(N2C[C@H]3CC[C@@H](C2)N3)nc(OCC2(CN3C[C@@H]4C[C@H]3CO4)CC2)nc1N1CC2(CCc3sc(N)c(C#N)c32)C1 [Compound 89, 2-amino-1′-[5-cyano-6-[(1R,5S)-3,8-diazabicyclo[3.2.1]octan-3-yl]-2-[[1-[[(1S,4S)-2-oxa-5-azabicyclo[2.2.1]heptan-5-yl]methyl]cyclopropyl]methoxy]pyrimidin-4-yl]spiro[5,6-dihydrocyclopenta[b]thiophene-4,3′-azetidine]-3-carbonitrile]",100 to 1000,10 to 100,–
"N#Cc1c(N2C[C@H]3CC[C@@H](C2)N3)nc(OC[C@@]23CCCN2C[C@H](F)C3)nc1N1CC2(CCc3sc(N)c(C#N)c32)C1 [Compound 25, 2-amino-1′-[5-cyano-6-(3,8-diazabicyclo[3.2.1]octan-3-yl)-2-[[(2R,8S)-2-fluoro-1,2,3,5,6,7-hexahydropyrrolizin-8-yl]methoxy]pyrimidin-4-yl]spiro[5,6-dihydrocyclopenta[b]thiophene-4,3′-azetidine]-3-carbonitrile]",100 to 1000,10 to 100,–
"N#Cc1c(N2CCCn3nc(C(=O)C4CC4)c(Cl)c3C2)nc(OC[C@@]23CCCN2C[C@H](F)C3)nc1N1CC2(CCc3sc(N)c(C#N)c32)C1 [Compound 62, 2-amino-1′-[6-[3-chloro-2-(cyclopropanecarbonyl)-4,6,7,8-tetrahydropyrazolo[1,5-a][1,4]diazepin-5-yl]-5-cyano-2-[[(2R,8S)-2-fluoro-1,2,3,5,6,7-hexahydropyrrolizin-8-yl]methoxy]pyrimidin-4-yl]spiro[5,6-dihydrocyclopenta[b]thiophene-4,3′-azetidine]-3-carbonitrile]",10000 to 100000,10 to 100,–
"CN(C)C(=O)c1nn2c(c1Cl)CN(c1nc(OC[C@@]34CCCN3C[C@H](F)C4)nc(N3CC4(CCc5sc(N)c(C#N)c54)C3)c1C#N)CC(F)(F)C2 [Compound 91, 5-[6-(2-amino-3-cyano-spiro[5,6-dihydrocyclopenta[b]thiophene-4,3′-azetidine]-1′-yl)-5-cyano-2-[[(2R,8S)-2-fluoro-1,2,3,5,6,7-hexahydropyrrolizin-8-yl]methoxy]pyrimidin-4-yl]-3-chloro-7,7-difluoro-N,N-dimethyl-6,8-dihydro-4H-pyrazolo[1,5-a][1,4]diazepine-2-carboxamide]",100 to 1000,10 to 100,–
"N#Cc1c(N2C[C@H]3CC[C@@H](C2)N3)nc(OCC2(CN3CCOCC3)CC2)nc1N1CC2(CCCc3sc(N)c(C#N)c32)C1 [Compound 41, 2-amino-1′-[5-cyano-2-[[1-(morpholinomethyl)cyclopropyl]methoxy]-6-[(1R,5S)-3,8-diazabicyclo[3.2.1]octan-3-yl]pyrimidin-4-yl]spiro[6,7-dihydro-5H-benzothiophene-4,3′-azetidine]-3-carbonitrile]",100 to 1000,10 to 100,–
"CN(C)C(=O)c1nn2c(c1Cl)CN(c1nc(OC[C@@]34CCCN3C[C@H](F)C4)nc(N3CC4(CCCCc5sc(N)c(C#N)c54)C3)c1C#N)CCC2 [Compound 10, 5-[6-(2-amino-3-cyano-spiro[5,6,7,8-tetrahydrocyclohepta[b]thiophene-4,3′-azetidine]-1′-yl)-5-cyano-2-[[(2R,8S)-2-fluoro-1,2,3,5,6,7-hexahydropyrrolizin-8-yl]methoxy]pyrimidin-4-yl]-3-chloro-N,N-dimethyl-4,6,7,8-tetrahydropyrazolo[1,5-a][1,4]diazepine-2-carboxamide]",1000 to 10000,10 to 100,–
"N#Cc1c(N2CCCC3(C2)NC(=O)NC3=O)nc(OC[C@@]23CCCN2C[C@H](F)C3)nc1N1CC2(CCc3sc(N)c(C#N)c32)C1 (stereo partly drawn) [Compound 12, 2-amino-1′-[5-cyano-6-(2,4-dioxo-1,3,9-triazaspiro[4.5]decan-9-yl)-2-[[(2R,8S)-2-fluoro-1,2,3,5,6,7-hexahydropyrrolizin-8-yl]methoxy]pyrimidin-4-yl]spiro[5,6-dihydrocyclopenta[b]thiophene-4,3′-azetidine]-3-carbonitrile]",100 to 1000,1000 to 10000,–
"CC1CC2(CN(c3nc(OC[C@@]45CCCN4C[C@H](F)C5)nc(N4CCCn5nc(C(=O)N(C)C)c(Cl)c5C4)c3C#N)C2)c2c1sc(N)c2C#N (stereo partly drawn) [Compound 14, 5-[6-(2-amino-3-cyano-6-methyl-spiro[5,6-dihydrocyclopenta[b]thiophene-4,3′-azetidine]-1′-yl)-5-cyano-2-[[(2R,8S)-2-fluoro-1,2,3,5,6,7-hexahydropyrrolizin-8-yl]methoxy]pyrimidin-4-yl]-3-chloro-N,N-dimethyl-4,6,7,8-tetrahydropyrazolo[1,5-a][1,4]diazepine-2-carboxamide]",100 to 1000,10 to 100,–
"Cc1nc(-c2nn3c(c2Cl)CN(c2nc(OC[C@@]45CCCN4C[C@H](F)C5)nc(N4CC5(CCc6sc(N)c(C#N)c65)C4)c2C#N)CCC3)n(C)n1 [Compound 85, 2-amino-1′-[6-[3-chloro-2-(2,5-dimethyl-1,2,4-triazol-3-yl)-4,6,7,8-tetrahydropyrazolo[1,5-a][1,4]diazepin-5-yl]-5-cyano-2-[[(2R,8S)-2-fluoro-1,2,3,5,6,7-hexahydropyrrolizin-8-yl]methoxy]pyrimidin-4-yl]spiro[5,6-dihydrocyclopenta[b]thiophene-4,3′-azetidine]-3-carbonitrile]",10000 to 100000,100 to 1000,–
"CO[C@H]1CN(CC2(COc3nc(N4C[C@H]5CC[C@@H](C4)N5)c(C#N)c(N4CC5(CCc6sc(N)c(C#N)c65)C4)n3)CC2)C[C@@H]1F [Compound 81, 2-amino-1′-[5-cyano-6-[(1R,5S)-3,8-diazabicyclo[3.2.1]octan-3-yl]-2-[[1-[[(3S,4S)-3-fluoro-4-methoxy-pyrrolidin-1-yl]methyl]cyclopropyl]methoxy]pyrimidin-4-yl]spiro[5,6-dihydrocyclopenta[b]thiophene-4,3′-azetidine]-3-carbonitrile]",1000 to 10000,100 to 1000,–
"CN(C)C(=O)c1nn2c(c1Cl)CN(c1nc(OC[C@@]34CCCN3C[C@H](F)C4)nc(N3CC4(CCCc5sc(N)c(C#N)c54)C3)c1C#N)CCC2 [Compound 3, 5-[6-(2-amino-3-cyano-spiro[6,7-dihydro-5H-benzothiophene-4,3′-azetidine]-1′-yl)-5-cyano-2-[[(2R,8S)-2-fluoro-1,2,3,5,6,7-hexahydropyrrolizin-8-yl]methoxy]pyrimidin-4-yl]-3-chloro-N,N-dimethyl-4,6,7,8-tetrahydropyrazolo[1,5-a][1,4]diazepine-2-carboxamide]",1000 to 10000,10 to 100,10000 to 100000
"N#Cc1c(N2C[C@H]3CC[C@@H](C2)N3)nc(OCC2(CN3CCOCC3)CC2)nc1N1CC2(C=CCc3sc(N)c(C#N)c32)C1 [Compound 86, 2-amino-1′-[5-cyano-2-[[1-(morpholinomethyl)cyclopropyl]methoxy]-6-[(1R,5S)-3,8-diazabicyclo[3.2.1]octan-3-yl]pyrimidin-4-yl]spiro[7H-benzothiophene-4,3′-azetidine]-3-carbonitrile]",< 100,10 to 100,–
"N#Cc1c(N2C[C@H]3CC[C@@H](C2)N3)nc(OCc2ccn[nH]2)nc1N1CC2(CCc3sc(N)c(C#N)c32)C1 [Compound 79, 2-amino-1′-[5-cyano-6-[(1R,5S)-3,8-diazabicyclo[3.2.1]octan-3-yl]-2-(1H-pyrazol-5-ylmethoxy)pyrimidin-4-yl]spiro[5,6-dihydrocyclopenta[b]thiophene-4,3′-azetidine]-3-carbonitrile]",100 to 1000,10 to 100,–
